Experimental data as given in PubChem BioAssay (NCI).
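Protocol summary: plate cells (96-well), add compound at 5 concentrations, incubate 48 h, interpolate endpoints linearly. GI50 marks 50% less growth. At the TGI there is no net growth.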

How the values were obtained:
Experiment in all cases: DTP human tumour cell line panel, 48 h
SF-539 CNS = test system: SF-539 CNS
HCT-15 colon = test system: HCT-15 colon
NCI-H23 lung = test system: NCI-H23 lung
SR leukemia = test system: SR leukemia
CAKI-1 renal = test system: CAKI-1 renal
A498 renal = test system: A498 renal
UACC-62 melanoma = test system: UACC-62 melanoma
HCT-116 colon = test system: HCT-116 colon
UO-31 renal = test system: UO-31 renal
NCI-H460 lung = test system: NCI-H460 lung
KM12 colon = test system: KM12 colon
MCF7 breast = test system: MCF7 breast
DU-145 prostate = test system: DU-145 prostate
SK-MEL-28 melanoma = test system: SK-MEL-28 melanoma
RXF 393 renal = test system: RXF 393 renal
IGROV1 ovarian = test system: IGROV1 ovarian
U251 CNS = test system: U251 CNS
SNB-75 CNS = test system: SNB-75 CNS
COLO 205 colon = test system: COLO 205 colon
CCRF-CEM leukemia = test system: CCRF-CEM leukemia
T-47D breast = test system: T-47D breast
SNB-19 CNS = test system: SNB-19 CNS
ACHN renal = test system: ACHN renal
SK-OV-3 ovarian = test system: SK-OV-3 ovarian
SF-268 CNS = test system: SF-268 CNS
NCI-H522 lung = test system: NCI-H522 lung
OVCAR-5 ovarian = test system: OVCAR-5 ovarian
MDA-MB-231 breast = test system: MDA-MB-231 breast
HOP-62 NSCLC = test system: HOP-62 NSCLC
MALME-3M melanoma = test system: MALME-3M melanoma
TK-10 renal = test system: TK-10 renal
OVCAR-8 ovarian = test system: OVCAR-8 ovarian
HCC-2998 colon = test system: HCC-2998 colon
K-562 leukemia = test system: K-562 leukemia
SK-MEL-5 melanoma = test system: SK-MEL-5 melanoma
MDA-MB-435 = test system: MDA-MB-435
SF-295 CNS = test system: SF-295 CNS
MOLT-4 leukemia = test system: MOLT-4 leukemia
HL-60(TB) leukemia = test system: HL-60(TB) leukemia
SN12C renal = test system: SN12C renal
EKVX NSCLC = test system: EKVX NSCLC
A549 NSCLC = test system: A549 NSCLC
RPMI-8226 leukemia = test system: RPMI-8226 leukemia
LOX IMVI melanoma = test system: LOX IMVI melanoma
HOP-92 NSCLC = test system: HOP-92 NSCLC
NCI-H226 lung = test system: NCI-H226 lung
OVCAR-4 ovarian = test system: OVCAR-4 ovarian
SW-620 colon = test system: SW-620 colon
OVCAR-3 ovarian = test system: OVCAR-3 ovarian

CCOC(=O)c1c(NC(=O)c2cccc(C(F)(F)F)c2)sc2c3c(ccc12)OCN(C)C3
GI50 (SF-539 CNS): 1660 nM
TGI (SF-539 CNS): 3190 nM
GI50 (HCT-15 colon): 1310 nM
TGI (HCT-15 colon): 2690 nM
GI50 (NCI-H23 lung): 1890 nM
TGI (NCI-H23 lung): 3840 nM
GI50 (SR leukemia): 463 nM
TGI (SR leukemia): 4580 nM
GI50 (CAKI-1 renal): 1570 nM
TGI (CAKI-1 renal): 2990 nM
GI50 (A498 renal): 1630 nM
TGI (A498 renal): 3070 nM
GI50 (UACC-62 melanoma): 1680 nM
TGI (UACC-62 melanoma): 3170 nM
GI50 (HCT-116 colon): 1950 nM
TGI (HCT-116 colon): 4740 nM
GI50 (UO-31 renal): 1530 nM
TGI (UO-31 renal): 2940 nM
GI50 (NCI-H460 lung): 1640 nM
TGI (NCI-H460 lung): 3280 nM
GI50 (KM12 colon): 1680 nM
TGI (KM12 colon): 3190 nM
GI50 (MCF7 breast): 1670 nM
TGI (MCF7 breast): 3300 nM
GI50 (DU-145 prostate): 1790 nM
TGI (DU-145 prostate): 3230 nM
GI50 (SK-MEL-28 melanoma): 1710 nM
TGI (SK-MEL-28 melanoma): 3140 nM
GI50 (RXF 393 renal): 1470 nM
TGI (RXF 393 renal): 3020 nM
GI50 (IGROV1 ovarian): 1690 nM
TGI (IGROV1 ovarian): 3500 nM
GI50 (U251 CNS): 1850 nM
TGI (U251 CNS): 3930 nM
GI50 (SNB-75 CNS): 1530 nM
TGI (SNB-75 CNS): 3280 nM
GI50 (COLO 205 colon): 2210 nM
TGI (COLO 205 colon): 5080 nM
GI50 (CCRF-CEM leukemia): 1560 nM
TGI (CCRF-CEM leukemia): 4620 nM
GI50 (T-47D breast): 1940 nM
TGI (T-47D breast): 4570 nM
GI50 (SNB-19 CNS): 1790 nM
TGI (SNB-19 CNS): 3640 nM
GI50 (ACHN renal): 1760 nM
TGI (ACHN renal): 3270 nM
GI50 (SK-OV-3 ovarian): 2070 nM
TGI (SK-OV-3 ovarian): 4310 nM
GI50 (SF-268 CNS): 1890 nM
TGI (SF-268 CNS): 3790 nM
GI50 (NCI-H522 lung): 2220 nM
TGI (NCI-H522 lung): 5550 nM
GI50 (OVCAR-5 ovarian): 1670 nM
TGI (OVCAR-5 ovarian): 3150 nM
GI50 (MDA-MB-231 breast): 1700 nM
TGI (MDA-MB-231 breast): 3330 nM
GI50 (HOP-62 NSCLC): 2330 nM
TGI (HOP-62 NSCLC): 6080 nM
GI50 (MALME-3M melanoma): 1980 nM
TGI (MALME-3M melanoma): 3740 nM
GI50 (TK-10 renal): 1910 nM
TGI (TK-10 renal): 3810 nM
GI50 (OVCAR-8 ovarian): 2260 nM
TGI (OVCAR-8 ovarian): 5240 nM
GI50 (HCC-2998 colon): 1520 nM
TGI (HCC-2998 colon): 2980 nM
GI50 (K-562 leukemia): 394 nM
TGI (K-562 leukemia): 1800 nM
GI50 (SK-MEL-5 melanoma): 1770 nM
TGI (SK-MEL-5 melanoma): 3270 nM
GI50 (MDA-MB-435): 1690 nM
TGI (MDA-MB-435): 3130 nM
GI50 (SF-295 CNS): 1780 nM
TGI (SF-295 CNS): 3350 nM
GI50 (MOLT-4 leukemia): 1860 nM
TGI (MOLT-4 leukemia): 4540 nM
GI50 (HL-60(TB) leukemia): 1540 nM
TGI (HL-60(TB) leukemia): 4290 nM
GI50 (SN12C renal): 1800 nM
TGI (SN12C renal): 3530 nM
GI50 (EKVX NSCLC): 1640 nM
TGI (EKVX NSCLC): 3240 nM
GI50 (A549 NSCLC): 2070 nM
TGI (A549 NSCLC): 4900 nM
GI50 (RPMI-8226 leukemia): 1540 nM
TGI (RPMI-8226 leukemia): 4270 nM
GI50 (LOX IMVI melanoma): 1680 nM
TGI (LOX IMVI melanoma): 3250 nM
GI50 (HOP-92 NSCLC): 1400 nM
TGI (HOP-92 NSCLC): 3050 nM
GI50 (NCI-H226 lung): 1780 nM
TGI (NCI-H226 lung): 3780 nM
GI50 (OVCAR-4 ovarian): 1790 nM
TGI (OVCAR-4 ovarian): 3610 nM
GI50 (SW-620 colon): 873 nM
TGI (SW-620 colon): 2270 nM
GI50 (OVCAR-3 ovarian): 1700 nM
TGI (OVCAR-3 ovarian): 3210 nM
